This note sets out measurements from article PMC10977697 (PLOS ONE, 2024).

Bridges are numbered along the chain shown (N, C = ends). Where no end group is shown, it is not given here.

The first test deals with ApoL1. The experiment in a line: Spot phage ELISA, ApoL1. In kind it is binding, human. The conditions noted are these: ratio of signal for target protein over BSA background. Background: In an ELISA, binding on a coated surface is turned into a signal by an enzyme label.
As to “GCKFKAHSCKQDSDCLAGCVCSGQDPGCG (also: bicyclic or more (positions not given here)) [ApoL1 EET I-II 30]”, the S/N stood at 18.9.

Consider “GCHYRRNRWEQACKQDSDCLAGCVCQGMPKCG (also: bicyclic or more (positions not given here)) [ApoL1 EET I-II 18]”, for which the S/N was found to be 38.3.

Turning to “GCRFREMFYKVTCKQDSDCLAGCVCSHEANCG (also: bicyclic or more (positions not given here)) [ApoL1 EET I-II 8]”, the S/N was found to be 43.8.

For the sequence “GCRFMSHMRKRECKQDSDCLAGCVCDYQTACG (also: bicyclic or more (positions not given here)) [ApoL1 EET I-II 1]”, the S/N was 70.0.

Regarding “GCKFKHFLCKQDSDCLAGCVCDDLQNCG (also: bicyclic or more (positions not given here)) [ApoL1 EET I-II 9]”, the S/N is reported as 43.0.

For “GCLFKQEMGTCKQDSDCLAGCVCEFQQKCG (also: bicyclic or more (positions not given here)) [ApoL1 EET I-II 16]”, the S/N was determined as 40.2.

With “GCKFWFWRLCKQDSDCLAGCVCAGSPPCG (also: bicyclic or more (positions not given here)) [ApoL1 EET I-II 35]”, the S/N was 14.1.

With “GCKFKCKQDSDCLAGCVCGHYDHCG (also: bicyclic or more (positions not given here)) [ApoL1 EET I-II 28]”, the S/N is 23.6.

For “GCKFKSFTCKQDSDCLAGCVCWDQDTCG (also: bicyclic or more (positions not given here)) [ApoL1 EET I-II 7]”, the S/N is 44.3.

Regarding “GCMFKQRHCKQDSDCLAGCVCSQGQPCG (also: bicyclic or more (positions not given here)) [ApoL1 EET I-II 5]”, the S/N came to 47.1.

For the sequence “GCKFKRHMCKQDSDCLAGCVCTVKQNCG (also: bicyclic or more (positions not given here)) [ApoL1 EET I-II 41]”, the S/N is on record as 8.3.

“GCSWKCKQDSDCLAGCVCKMSQQCG (also: bicyclic or more (positions not given here)) [ApoL1 EET I-II 45]”: the S/N amounted to 4.7.

Consider “GCMFKAHWCKQDSDCLAGCVCHRSALCG (also: bicyclic or more (positions not given here)) [ApoL1 EET I-II 12]”, for which the S/N is given as 41.1.

In the case of “GPTQSPFGQCGGIGYSGPTVCASGTTCQVLRPNFSWCLPGAS (also: bicyclic or more (positions not given here)) [ApoL1 CBD 1]”, the S/N is reported as 21.6.

For “GCAFRRHVCKQDSDCLAGCVCDKSDGCG (also: bicyclic or more (positions not given here)) [ApoL1 EET I-II 25]”, the S/N amounted to 25.7.

Turning to “GCMFKRYFCKQDSDCLAGCVCPHDDQCG (also: bicyclic or more (positions not given here)) [ApoL1 EET I-II 34]”, the S/N came out at 14.2.

With “GCYYKCKQDSDCLAGCVCRTSNMCG (also: bicyclic or more (positions not given here)) [ApoL1 EET I-II 17]”, the S/N turned out to be 39.0.

For the sequence “GCLFRRNFCKQDSDCLAGCVCEPFPECG (also: bicyclic or more (positions not given here)) [ApoL1 EET I-II 31]”, the S/N worked out at 17.5.

“GCKFKEWFCKQDSDCLAGCVCEHSQSCG (also: bicyclic or more (positions not given here)) [ApoL1 EET I-II 20]”: the S/N turned out to be 36.0.

As for “GCKYKCKQDSDCLAGCVCQQQGGCG (also: bicyclic or more (positions not given here)) [ApoL1 EET I-II 14]”, the S/N is reported as 40.2.

“GCKFRLWHCKQDSDCLAGCVCTAQPDCG (also: bicyclic or more (positions not given here)) [ApoL1 EET I-II 47]”: the S/N was found to be 3.6.

Regarding “GCLFKKAMGFCKQDSDCLAGCVCREMSHCG (also: bicyclic or more (positions not given here)) [ApoL1 EET I-II 3]”, the S/N is listed as 52.4.

Consider “GCKFKHWYCKQDSDCLAGCVCCPPNHYG [ApoL1 EET I-II 11]”, for which the S/N is on record as 41.1.

In a further test the test system is PCSK9.
Test: not given
It is filed as binding, human. The following applies: ratio of signal for target protein over BSA background.
For “GPTQSKYGMCGGIGYSGPTVCASGTTCQVLDPYTSQCLPGAS (disulfide 10-27, 21-37 (inferred)) [PCSK9FL_CBD2]”, the s/n ratio amounted to 26.8.

Staying with this test, now noted: spot phage ELISA signal-to-noise on PCSK9.
The sequence “GPTHSTYGQCGGIGYSGQSVCASGTTCQVLWAALSWCLPGAS (disulfide (positions not given here)) [PCSK9 CBD 12]” displayed a S/N of 7.8.

“GCGWWYRQWFCKQDSDCLAGCVCLETPECG (disulfide (positions not given here)) [PCSK9 EET I-II 16]” returned a S/N of 15.7.

Regarding “GPTQSAFGPCGGIGYSGPTVCASGTTCQVLSPDVSQCLPGAS (disulfide (positions not given here)) [PCSK9 CBD 5]”, the S/N is 2.6.

Take “GPTQSNYGMCGGIGYSGPTVCASGTTCQVLYPTTSRCLPGAS (disulfide (positions not given here)) [PCSK9 CBD 1]”: the S/N came to 17.7.

As for “GCSWVPYWCKQDSDCLAGCVCWEMVWCD (disulfide (positions not given here)) [PCSK9 EET I-II 6]”, the S/N worked out at 7.0.

Sequence “GPTQSEYGMCGGIGYSGPTVCASGTTCQVLDPTTSQCLPGAS (disulfide (positions not given here)) [PCSK9 CBD 17]” had a S/N of 11.3.

“GPTQSPGGICGGIGYSGPTVCASGTTCQVLSPEYSQCLPGAS (disulfide (positions not given here)) [PCSK9 CBD 19]” returned a S/N of 15.8.

On to “GCGYWWKQWFCKQDSDCLAGCVCGPNGFCG (disulfide (positions not given here)) [PCSK9 EET I-II 17]”, for which the S/N is listed as 17.6.

Sequence “GPTQSTYGRCGGIGYSGPTVCASGTTCQVLWPALSWCLPGAS (disulfide (positions not given here)) [PCSK9 CBD 4]” showed a S/N of 3.7.

As for “GPTQSLFGMCGGIGYSGPTVCASGTTCQVLYPTTSRCLPGAS (disulfide (positions not given here)) [PCSK9 CBD 20]”, the S/N worked out at 18.0.

In turn, “GPTQSKYGMCGGIGYSGPTVCASGTTCQVLDPYTSQCLPGAS (disulfide (positions not given here)) [PCSK9 CBD 14]” displayed a S/N of 8.8.

For the sequence “GPTQSTYGQCGGIGYSGPTVCASGTTCQVLGPALSWCLPGAS (disulfide (positions not given here)) [PCSK9 CBD 9]”, the S/N was 5.2.

For “GPTQSTYGQCGGIGYSGPTVCASGTTCQVLWPALSWCLPGAS (disulfide (positions not given here)) [PCSK9 CBD 26]”, the S/N is 21.5.

As for “GCGYWWVQWFCKQDSDCLAGCVCGPNGFCD (disulfide (positions not given here)) [PCSK9 EET I-II 11]”, the S/N worked out at 19.1.

For the sequence “GCYHGYWYITWFCKQDSDCLAGCVCSQDEQCG (disulfide (positions not given here)) [PCSK9 EET I-II 14]”, the S/N stood at 17.0.

“GCGYWFIQWFCKQDSDCLAGCVCGPNGFCG (disulfide (positions not given here)) [PCSK9 EET I-II 1]”: the S/N was determined as 21.8.
